Measured values as given in ChEMBL document CHEMBL3886358, “Quinolyl-containing hydroxamic acid compound and preparation method thereof, and pharmaceutical composition containing this compound and use thereof” (2015).

Target: T1, Tyrosine-protein kinase receptor UFO (Homo sapiens, UniProt P30530)
T1 sequence (P30530 whole entry): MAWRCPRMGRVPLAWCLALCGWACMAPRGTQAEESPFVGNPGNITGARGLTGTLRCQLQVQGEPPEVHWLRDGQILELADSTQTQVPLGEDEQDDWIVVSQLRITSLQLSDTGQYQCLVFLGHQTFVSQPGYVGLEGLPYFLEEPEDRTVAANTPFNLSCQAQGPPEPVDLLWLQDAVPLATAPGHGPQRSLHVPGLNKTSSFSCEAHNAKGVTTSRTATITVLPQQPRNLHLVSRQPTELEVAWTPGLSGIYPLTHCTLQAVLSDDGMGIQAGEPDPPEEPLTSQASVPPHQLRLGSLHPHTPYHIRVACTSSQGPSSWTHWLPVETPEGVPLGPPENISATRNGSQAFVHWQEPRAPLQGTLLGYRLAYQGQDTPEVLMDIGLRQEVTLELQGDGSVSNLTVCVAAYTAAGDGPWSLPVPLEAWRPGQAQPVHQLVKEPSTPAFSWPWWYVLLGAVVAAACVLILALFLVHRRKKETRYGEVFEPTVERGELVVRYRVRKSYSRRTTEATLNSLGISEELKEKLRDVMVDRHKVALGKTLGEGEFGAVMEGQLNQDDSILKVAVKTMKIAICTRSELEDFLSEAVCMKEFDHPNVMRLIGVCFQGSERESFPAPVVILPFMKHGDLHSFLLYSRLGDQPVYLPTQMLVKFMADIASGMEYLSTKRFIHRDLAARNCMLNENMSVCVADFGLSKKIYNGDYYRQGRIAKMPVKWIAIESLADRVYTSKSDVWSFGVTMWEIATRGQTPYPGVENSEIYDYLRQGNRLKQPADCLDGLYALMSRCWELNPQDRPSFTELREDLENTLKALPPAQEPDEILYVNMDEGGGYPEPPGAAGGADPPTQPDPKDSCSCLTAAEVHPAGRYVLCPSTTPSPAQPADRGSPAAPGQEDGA
Assay: Sci. USA 1988, 85(23), 9312). Specific steps were as follows: The compound of the present invention was dissolved in dimethyl sulfoxide (DMSO) to make a stock solution of 2 mM, then the stock solution was diluted with DMSO following a 7 half-log series to concentrations ranging from 2 uM to 600 pM.
Type: cell-based

SMILES: COc1cc2c(Oc3ccc(NC(=O)C4(C(=O)Nc5ccc(F)cc5)CC4)cc3F)ccnc2cc1OCCCC(=O)NO
- IC50: 19 nM
